Source: patent US10766878B2, “Sulfonylcycloalkyl carboxamide compounds” (Genentech, Inc., priority 2017, dated 2020)

Target: human TRPA1 (Homo sapiens (Human), UniProt O75762)
Test: hTRPA1 CHO Ca2+ AUC EVO (IC50); FLIPR Tetra block of cinnamaldehyde induced calcium influx
Assay type: cell-based
Conditions: CHO cells expressing TRPA1, 75 uM cinnamaldehyde agonist
Experimental: IC50 values ([…]) of compounds on the human and rat TRPA1 channels were determined using a FLIPR Tetra instrument. CHO cells expressing TRPA1 were plated into 384-well plates, incubated overnight at 37 C, and loaded with BD calcium indicator dye for 1 hr at 37° C. followed by 15 minutes. at room temperature. The assay buffer was Hank's Balanced Salt Solution (HBSS) containing 20 mM HEPES (pH readjusted to 7.4) along with 0.02% BSA.
Following dye load and plate cool down, compounds were added to the cells using FLIPR Tetra. Plates were then incubated with compounds for 20 minutes at room temperature prior to adding agonist. Following this incubation, ˜EC80 concentration of cinnamaldehyde (75 uM for human TRPA1 and 45 uM for rat TRPA1) was added to active the channels and block of cinnamaldehyde induced calcium influx was measured.
IC50 values were fit with a standard Hill function, keeping the Hill coefficient (n) fixed to 1.5. Fixing the Hill coefficient will generally reduce variability of the IC50 determination. The IC50 values were individually examined to make sure the MIN and MAX points were set correctly prior to validation of the results.

Chain of human TRPA1 (O75762 whole entry): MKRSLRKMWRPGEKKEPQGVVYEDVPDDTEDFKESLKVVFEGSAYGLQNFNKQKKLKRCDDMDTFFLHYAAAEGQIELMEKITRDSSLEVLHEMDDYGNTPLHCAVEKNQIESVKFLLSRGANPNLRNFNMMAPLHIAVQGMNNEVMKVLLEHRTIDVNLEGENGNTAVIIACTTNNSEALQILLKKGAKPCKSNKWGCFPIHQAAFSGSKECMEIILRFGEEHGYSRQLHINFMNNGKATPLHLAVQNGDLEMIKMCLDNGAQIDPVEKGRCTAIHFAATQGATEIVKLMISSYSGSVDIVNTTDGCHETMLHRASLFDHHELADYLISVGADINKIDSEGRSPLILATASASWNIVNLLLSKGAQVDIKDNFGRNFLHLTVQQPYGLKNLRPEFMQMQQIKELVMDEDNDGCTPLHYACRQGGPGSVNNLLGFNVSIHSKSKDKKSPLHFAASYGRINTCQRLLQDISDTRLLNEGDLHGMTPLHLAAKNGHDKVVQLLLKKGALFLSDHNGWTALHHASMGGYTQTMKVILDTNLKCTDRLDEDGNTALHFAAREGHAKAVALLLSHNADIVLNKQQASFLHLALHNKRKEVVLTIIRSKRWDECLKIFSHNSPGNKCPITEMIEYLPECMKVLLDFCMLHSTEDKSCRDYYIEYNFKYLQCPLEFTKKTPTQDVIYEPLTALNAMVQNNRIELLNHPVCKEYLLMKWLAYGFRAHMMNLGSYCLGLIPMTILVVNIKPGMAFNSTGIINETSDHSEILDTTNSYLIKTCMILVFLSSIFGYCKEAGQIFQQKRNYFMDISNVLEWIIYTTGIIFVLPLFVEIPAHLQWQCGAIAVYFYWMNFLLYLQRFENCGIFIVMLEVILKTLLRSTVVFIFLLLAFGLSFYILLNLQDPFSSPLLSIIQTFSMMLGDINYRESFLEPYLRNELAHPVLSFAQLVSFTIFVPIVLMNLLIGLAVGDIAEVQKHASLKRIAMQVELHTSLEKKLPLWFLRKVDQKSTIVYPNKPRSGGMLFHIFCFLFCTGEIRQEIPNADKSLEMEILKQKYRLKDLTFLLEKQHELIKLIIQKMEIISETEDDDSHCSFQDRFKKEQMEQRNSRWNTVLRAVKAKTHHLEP

IC50 (Table 1) [nM] | IC50 (Table 3) [nM] | Structure (SMILES)
8.79 | 8.79 | CC1(C(=O)NCc2cn(-c3ccc(C(F)(F)F)cc3)nc2Cl)CCCC1S(=O)(=O)c1ccc(F)cc1 (single isomer, unassigned; enantiomer 1) [Example 5, N-((3-chloro-1-(4-(trifluoromethyl)phenyl)-1H-pyrazol-4-yl)methyl)-2-(4-fluorophenylsulfonyl)-1-methylcyclopentanecarboxamide (Enantiomer 1)]
 | 71.7 | COc1nn(-c2ccc(C(F)(F)F)cc2)cc1CNC(=O)C1CCC1(C)S(=O)(=O)c1ccc(F)cc1 (single isomer, unassigned; enantiomer 1) [Example 22, 2-(4-fluorophenylsulfonyl)-N-(3-methoxy-1-(4-(trifluoromethyl)phenyl)-1H-pyrazol-4-yl)methyl)-2-methylcyclobutanecarboxamide (Enantiomer 1)]
39.2 | 39.2 | CC1(C(=O)NCc2cn(-c3ccc(C(F)(F)F)nc3)nc2Cl)CCCC1S(=O)(=O)c1ccc(F)cc1 (single isomer, unassigned; enantiomer 1) [Example 31, N-((3-chloro-1-(6-(trifluoromethyl)pyridin-3-yl)-1H-pyrazol-4-yl)methyl)-2-(4-fluorophenylsulfonyl)-1-methylcyclopentanecarboxamide (Enantiomer 1)]
33.1 | 33.1 | COc1nn(-c2ccc(C(F)(F)F)nc2)cc1CNC(=O)C1(C)CCCC1S(=O)(=O)c1ccc(F)cc1 (single isomer, unassigned; enantiomer 1) [Example 34, 2-(4-fluorophenylsulfonyl)-N-((3-methoxy-1-(6-(trifluoromethyl)pyridin-3-yl)-1H-pyrazol-4-yl)methyl)-1-methylcyclopentanecarboxamide (Enantiomer 1)]
 | 213 | COc1nn(-c2ccc(C(F)(F)F)nc2)cc1CC(=O)NC1CCC1S(=O)(=O)c1ccc(F)cc1 (single isomer, unassigned; enantiomer 2) [Example 12, N-(2-((4-fluorophenyl)sulfonyl)cyclobutyl)-2-(3-methoxy-1-(6-(trifluoromethyl)pyridin-3-yl)-1H-pyrazol-4-yl)acetamide (Enantiomer 2)]
 | 96 | O=C(NCc1cn(-c2ccc(C(F)(F)F)cc2)nc1C(F)F)C1CCC1S(=O)(=O)c1ccc(F)cc1 (single isomer, unassigned; enantiomer 2) [Example 18, N-((3-(difluoromethyl)-1-(4-(trifluoromethyl)phenyl)-1H-pyrazol-4-yl)methyl)-2-(4-fluorophenylsulfonyl) cyclobutanecarboxamide (Enantiomer 2)]
38 | 38 | COc1nn(-c2ccc(C(F)(F)F)cc2)cc1CNC(=O)C1CCC1(C)S(=O)(=O)c1ccc(F)cc1 (single isomer, unassigned; enantiomer 2) [Example 23, 2-(4-fluorophenylsulfonyl)-N-((3-methoxy-1-(4-(trifluoromethyl)phenyl)-1H-pyrazol-4-yl)methyl)-2-methylcyclobutanecarboxamide (Enantiomer 2)]
 | 192 | O=C(NCc1cn(-c2ccc(C(F)(F)F)nc2)nc1C(F)(F)F)C1CCC1S(=O)(=O)c1ccc(F)cc1 (single isomer, unassigned; enantiomer 2) [Example 25, 2-(4-fluorophenylsulfonyl)-N-((3-(trifluoromethyl)-1-(6-(trifluoromethyl)pyridin-3-yl)-1H-pyrazol-4-yl)methyl) cyclobutanecarboxamide (Enantiomer 2)]
 | 65.8 | O=C(NCc1cn(-c2ccc(C(F)(F)F)cc2)nc1Cl)C1CCC1S(=O)(=O)c1ccc(F)cc1 (single isomer, unassigned; enantiomer 2) [Example 29, N-((3-chloro-1-(4-(trifluoromethyl)phenyl)-1H-pyrazol-4-yl)methyl)-2-(4-fluorophenylsulfonyl) cyclobutanecarboxamide (Enantiomer 2)]
 | 85.7 | CC1(C(=O)NCc2cn(-c3ccc(C(F)(F)F)nc3)nc2Cl)CCCC1S(=O)(=O)c1ccc(F)cc1 (single isomer, unassigned; enantiomer 2) [Example 32, N-((3-chloro-1-(6-(trifluoromethyl)pyridin-3-yl)-1H-pyrazol-4-yl)methyl)-2-(4-fluorophenylsulfonyl)-1-methylcyclopentanecarboxamide (Enantiomer 2)]
 | 199 | COc1nn(-c2ccc(C(F)(F)F)nc2)cc1CNC(=O)C1(C)CCCC1S(=O)(=O)c1ccc(F)cc1 (single isomer, unassigned; enantiomer 2) [Example 35, 2-(4-fluorophenylsulfonyl)-N-((3-methoxy-1-(6-(trifluoromethyl)pyridin-3-yl)-1H-pyrazol-4-yl)methyl)-1-methylcyclopentanecarboxamide (Enantiomer 2)]
23.9 | 23.9 | CC1(C(=O)NCc2cn(-c3ccc(C(F)(F)F)cc3)nc2Cl)CCCC1S(=O)(=O)c1ccc(F)cc1 (single isomer, unassigned; enantiomer 2) [Example 37, N-((3-chloro-1-(4-(trifluoromethyl)phenyl)-1H-pyrazol-4-yl)methyl)-2-(4-fluorophenylsulfonyl)-1-methylcyclopentanecarboxamide (Enantiomer 2)]
 | 218 | COc1nn(-c2ccc(C(F)(F)F)nc2)cc1CNC(=O)C1CCCC1S(=O)(=O)c1ccc(F)cc1 (single isomer, unassigned; enantiomer 2) [Example 39, 2-(4-fluorophenylsulfonyl)-N-((3-methoxy-1-(6-(trifluoromethyl)pyridin-3-yl)-1H-pyrazol-4-yl)methyl) cyclopentanecarboxamide (Enantiomer 2)]
45.5 | 45.5 | O=C(NCc1cn(-c2ccc(C(F)(F)F)cc2)nc1Cl)C1CCCC1S(=O)(=O)c1ccc(F)cc1 (single isomer, unassigned; enantiomer 2) [Example 42, N-((3-chloro-1-(4-(trifluoromethyl)phenyl)-1H-pyrazol-4-yl)methyl)-2-(4-fluorophenylsulfonyl) cyclopentanecarboxamide (Enantiomer 2)]
 | 90.2 | O=C(NCc1cn(-c2ccc(C(F)(F)F)nc2)nc1C(F)(F)F)C1CCC1S(=O)(=O)c1ccc(F)cc1 (single isomer, unassigned; enantiomer 3) [Example 26, 2-(4-fluorophenylsulfonyl)-N-((3-(trifluoromethyl)-1-(6-(trifluoromethyl)pyridin-3-yl)-1H-pyrazol-4-yl)methyl) cyclobutanecarboxamide (Enantiomer 3)]
 | 56.7 | O=C(NCc1cn(-c2ccc(C(F)(F)F)cc2)nc1Cl)C1CCC1S(=O)(=O)c1ccc(F)cc1 (single isomer, unassigned; enantiomer 3) [Example 30, N-((3-chloro-1-(4-(trifluoromethyl)phenyl)-1H-pyrazol-4-yl)methyl)-2-(4-fluorophenylsulfonyl) cyclobutanecarboxamide (Enantiomer 3)]
 | 88.5 | CC1(C(=O)NCc2cn(-c3ccc(C(F)(F)F)nc3)nc2Cl)CCCC1S(=O)(=O)c1ccc(F)cc1 (single isomer, unassigned; enantiomer 3) [Example 33, N-((3-chloro-1-(6-(trifluoromethyl)pyridin-3-yl)-1H-pyrazol-4-yl)methyl)-2-(4-fluorophenylsulfonyl)-1-methylcyclopentanecarboxamide (Enantiomer 3)]
